Results from patent US4795643A, “Medicament with a delayed release of active ingredient” (priority 1987, dated 1989).

Assay: Dissolution Paddle Apparatus (U.S. Pharmacopoeia XX): rate of release of active ingredient from the capsule in water
Format: physicochemical
Procedure: For this purpose, the total amount of active ingredient released (cumulative values) is determined after fixed periods of time, in particular after 1, 2, 4, 6 and 8 hours, and this amount is expressed in % by weight of the amount of active ingredient contained in the capsule.

| release of ibuprofen (PEG 300-stearate (HLB=9 to 10) with Eudragit S 100 added, 2 hours) [%] | release of ibuprofen (PEG 1500-stearate (HLB=17) with Eudragit S 100 added, 8 hours) [%] | release of ibuprofen (mixture with PEG 300-stearate, 1 hour) [%] | release of ibuprofen (mixture with PEG 1500-stearate, 0.25 hour) [%] | Structure (SMILES) | release of diltiazem.HCl (absence of a polymer, 1.5 hours) [%] | release of diltiazem.HCl (ethylcellulose, HLB of 10.5, 6 hours) [%] | release of diltiazem.HCl (ethylcellulose, HLB of 11.5, 3 hours) [%] |
| --- | --- | --- | --- | --- | --- | --- | --- |
| 91.4 | 84.8 | 98.1 | 97 | CC(C)Cc1ccc(C(C)C(=O)O)cc1 (stereo not shown) [ibuprofen, 2-(4-isobutylphenyl)-propionic acid] | – | – | – |
| – | – | – | – | COc1ccc(C2Sc3ccccc3N(CCN(C)C)C(=O)C2OC(C)=O)cc1.Cl (stereo not shown) [diltiazem.HCl, 3-acetoxy-5-(2-dimethylaminoethyl)-2,3-dihydro-2-(4-methoxyphenyl)-1,5-benzothiazepin-4(5H)-one hydrochloride] | 92.5 | 68.5 | 84.5 |
